44 molecules from ChEMBL document CHEMBL1135175, “Synthesis and bioactivities of novel bicyclic thiophenes and 4,5,6,7-tetrahydrothieno[2,3-c]pyridines as inhibitors of tumor necrosis factor-alpha (TNF-alpha) production” (Bioorg Med Chem Lett, 2002) can be followed below.

pIC50: −log10 of the molar value.

Experiment [1] is filed under the species Rattus norvegicus. Nature of the experiment: Evaluated for its ability to inhibit LPS stimulated production of TNF-alpha in rat whole blood. The format is functional, organism-based.
Experiment [2] deals with Rattus norvegicus. Nature of the experiment: TNF-alpha inhibiting activity by in vivo inhibition of serum TNF production in rat at 50 mg/kg, peroral administration. Particulars: route oral. The format is functional.
Experiment [3] has as its system Rattus norvegicus. Nature of the experiment: Compound was evaluated for percentage recovery from femur weight in adjuvant-induced arthritic model of rat at a dose of 2 mg/kg. The format is functional.
The subject of experiment [4] is Rattus norvegicus. As to the kind of experiment: Compound was evaluated for percentage recovery from GAG in adjuvant-induced arthritic model of rat at a dose of 2 mg/kg. The format is functional.
The test system of experiment [5] is Rattus norvegicus. Nature of the experiment: Compound was evaluated for percentage recovery from paw edema in adjuvant-induced arthritic model of rat at a dose of 2 mg/kg. The format is functional.
Experiment [6] concerns Rattus norvegicus. Nature of the experiment: TNF-alpha inhibiting activity was assessed by In vivo inhibition of serum TNF production in rat, at 50 mg/kg, po. The format is functional.
Experiment [7] concerns Rattus norvegicus. Nature of the experiment: Compound was evaluated for percentage recovery from femur weight in adjuvant-induced arthritic model of rat at a dose of 50 mg/kg. The format is functional.
The subject of experiment [8] is Rattus norvegicus. As to the kind of experiment: Compound was evaluated for percentage recovery from GAG in adjuvant-induced arthritic model of rat at a dose of 50 mg/kg. The format is functional.
Experiment [9] relates to Rattus norvegicus. As to the kind of experiment: Compound was evaluated for percentage recovery from paw edema in adjuvant-induced arthritic model of rat at a dose of 50 mg/kg. The format is functional.
Experiment [10] concerns Rattus norvegicus. As to the kind of experiment: Compound was evaluated for percentage recovery from femur weight in adjuvant-induced arthritic model of rat at a dose of 10 mg/kg. Set-up: dose 10 mg/kg. The format is functional, organism-based.
In experiment [11] the test system is Rattus norvegicus. As to the kind of experiment: Compound was evaluated for percentage recovery from paw edema in adjuvant-induced arthritic model of rat at a dose of 10 mg/kg. The format is functional, organism-based. Set-up: dose 10 mg/kg.
The test system of experiment [12] is Rattus norvegicus. As to the kind of experiment: Compound was evaluated for percentage recovery from GAG in adjuvant-induced arthritic model of rat at a dose of 10 mg/kg. Set-up: dose 10 mg/kg. The format is functional, organism-based.

In the experiment listed under Rattus norvegicus [1], `CCOC(=O)c1c(NC(=O)C(C)C)sc2c1CCN(C(=O)c1ccccc1)C2` gave a pIC50 of 5.00. In the experiment with Rattus norvegicus [2], this molecule yielded an inhibition in vivo at 50 mg/kg of 31.8%. The molecule `CCOC(=O)c1c(NC(=O)c2cccnc2)sc2c1CCN(C(C)=O)C2` registered an inhibition in vivo at 50 mg/kg in the experiment with Rattus norvegicus [2] of 23.5%.

Take `CCCCC(CC)COC(=O)c1c(NC(=O)C(C)C)sc2c1CCN(C(C)=O)C2` (stereo unspecified): in the experiment listed under Rattus norvegicus [1], the pIC50 is 5.00. This molecule also registered an inhibition in vivo at 50 mg/kg in the experiment on Rattus norvegicus [2] of 10.6%. In the experiment filed under Rattus norvegicus [1], `CCOC(=O)c1c(NC(=O)Nc2cccnc2)sc2c1CCN(C(C)=O)C2` showed a pIC50 of 4.89. Besides, the inhibition in vivo at 50 mg/kg in the experiment with Rattus norvegicus [2] came out at 48.7%. Molecule `CCOC(=O)c1c(NC(=O)C2CC2)sc2c1CCN(C(C)=O)C2` displayed an inhibition in vivo at 50 mg/kg in the experiment with Rattus norvegicus [2] of 64.2%.

In the experiment filed under Rattus norvegicus [1], `CCOC(=O)c1c(NC(=O)NN2CCOCC2)sc2c1CCN(C(C)=O)C2` had a pIC50 of 4.92. The inhibition in vivo at 50 mg/kg in the experiment on Rattus norvegicus [2] is 22.1%.

In the experiment filed under Rattus norvegicus [1], `CCOC(=O)c1c(NC(=O)C(C)C)sc2c1CCSC2` showed a pIC50 of 4.47. Besides, at 50 mg/kg the inhibition in vivo with Rattus norvegicus [2] was 21.2%. In the case of `CCOC(=O)c1c(NC(=O)N2CCCCC2)sc2c1CCN(C(C)=O)C2`, the pIC50 in the experiment filed under Rattus norvegicus [1] is 4.89. Also, testing at 50 mg/kg in the experiment on Rattus norvegicus [2] gave an inhibition in vivo of 46.8%.

`CCOC(=O)c1c(NC(=O)CC)sc2c1CCN(CC)C2` gave a pIC50 in the experiment listed under Rattus norvegicus [1] of 4.66. The same molecule returned an inhibition in vivo at 50 mg/kg with Rattus norvegicus [2] of 9.2%.

For the molecule `CCOC(=O)c1c(NC(=O)OCCN2CCOCC2)sc2c1CCN(C(C)=O)C2`, the pIC50 in the experiment listed under Rattus norvegicus [1] was 4.89. Besides, in the experiment with Rattus norvegicus [2], at 50 mg/kg the inhibition in vivo was 57.6%.

The molecule `CCOC(=O)c1c(NC(=O)C(C)C)sc2c1CCCC2` had a negative logarithm of the IC50 (pIC50) in the experiment filed under Rattus norvegicus [1] of 4.55. This molecule gave an inhibition in vivo at 50 mg/kg with Rattus norvegicus [2] of 1.8%. In the case of `COc1ccc2c(c1)c(CC(=O)O)c(C)n2C(=O)c1ccc(Cl)cc1` [INDOMETHACIN], the Femur weight in the experiment on Rattus norvegicus [3] turned out to be 20%. For the same molecule, the GAG with Rattus norvegicus [4] is given as 7.4%. In addition, the Paw edema in the experiment on Rattus norvegicus [5] came to 72.1%.

In turn, `CCOC(=O)c1c(NC(=O)C(C)C)sc2c1CCN(Cc1ccccc1)C2` showed a pIC50 in the experiment filed under Rattus norvegicus [1] of 4.38. In the experiment listed under Rattus norvegicus [1], `CCOC(=O)c1c(NC(=O)C(C)C)sc2c1CCN(CC)C2` showed a pIC50 of 4.82. Besides, in the experiment with Rattus norvegicus [2], the inhibition in vivo at 50 mg/kg turned out to be 69.2%. In the case of `CCCN1CCc2c(sc(NC(=O)C(C)C)c2C(=O)OCC)C1`, in the experiment listed under Rattus norvegicus [1], the pIC50 is 4.40. In the case of `CCOC(=O)c1c(NC(=O)C(C)C)sc2c1CCN(C(C)=O)C2`, at 50 mg/kg the inhibition in vivo in the experiment with Rattus norvegicus [2] was 49.1%. `CCOC(=O)c1c(N(C)C(=O)CC)sc2c1CCN(C(C)=O)C2` gave a pIC50 in the experiment filed under Rattus norvegicus [1] of 5.05. The molecule also displayed an inhibition in vivo at 50 mg/kg with Rattus norvegicus [2] of 81%.

In the experiment listed under Rattus norvegicus [1], `CCOC(=O)c1c(NC(=O)N2CCSC2)sc2c1CCN(CC)C2` gave a negative logarithm of the IC50 (pIC50) of 5.22. In addition, in the experiment with Rattus norvegicus [2], testing at 50 mg/kg gave an inhibition in vivo of 5.4%. The corresponding values for `CCCCC(=O)Nc1sc2c(c1C(=O)OCC)CCN(C(C)=O)C2` are 4.74 and 42.9%. The corresponding values for `CCOC(=O)c1c(NC(=O)NC(Cc2ccccc2)C(=O)OC)sc2c1CCN(C(C)=O)C2` (stereo unspecified) are 6.05 and 8.2%. Take `CCOC(=O)c1c(NC(=O)N(CC)CC)sc2c1CCN(CC)C2`: the pIC50 in the experiment listed under Rattus norvegicus [1] is 5.66. The same molecule registered an inhibition in vivo at 50 mg/kg in the experiment with Rattus norvegicus [6] of 88.7%. As for `CCOC(=O)c1c(NC(=O)N(CC)CC)sc2c1CCN(C(C)=O)C2`, the Femur weight in the experiment on Rattus norvegicus [7] is 110%. In addition, the GAG with Rattus norvegicus [8] came to 119%. In the experiment listed under Rattus norvegicus [1], this molecule had a pIC50 of 5.21. The same molecule displayed an inhibition in vivo at 50 mg/kg in the experiment with Rattus norvegicus [2] of 92.3%. In the experiment with Rattus norvegicus [9], the Paw edema is listed as 42.5%. `CCOC(=O)c1c(NC(=O)N2CCOCC2)sc2c1CCN(C(C)=O)C2` showed a pIC50 in the experiment listed under Rattus norvegicus [1] of 6.00. The same molecule showed an inhibition in vivo at 50 mg/kg in the experiment with Rattus norvegicus [2] of 90.3%.

In the experiment filed under Rattus norvegicus [1], `CCCC(=O)Nc1sc2c(c1C(=O)OCC)CCN(C(C)=O)C2` showed a pIC50 of 4.55. Besides, in the experiment on Rattus norvegicus [2], the inhibition in vivo at 50 mg/kg came out at 33.3%. The corresponding values for `CCOC(=O)c1c(NC(C)=O)sc2c1CCN(C(C)=O)C2` are 4.89 and 78.4%. The corresponding values for `CCOC(=O)c1c(NC(=O)N2CCNCC2)sc2c1CCN(C(C)=O)C2` are 4.80 and 51.4%. As for `CCOC(=O)Nc1sc2c(c1C(=O)OCC)CCN(C(C)=O)C2`, in the experiment filed under Rattus norvegicus [1], the pIC50 was 4.70. Besides, testing at 50 mg/kg in the experiment with Rattus norvegicus [2] gave an inhibition in vivo of 57.1%. The corresponding values for `CCOC(=O)c1c(NC(=O)C(C)C)sc2c1CCN(C)C2` are 4.49 and 22.7%. For AURANOFIN, the Femur weight in the experiment on Rattus norvegicus [10] came to 17%. Also, the Paw edema in the experiment with Rattus norvegicus [11] is -4.7%. Also, the GAG with Rattus norvegicus [12] is 73%. Consider `CCOC(=O)c1c(N(C)C(=O)N(CC)CC)sc2c1CCN(C(C)=O)C2`, for which, in the experiment listed under Rattus norvegicus [1], the pIC50 is 4.92. Moreover, testing at 50 mg/kg with Rattus norvegicus [2] gave an inhibition in vivo of 51.9%. The corresponding values for `CCCN(CC1CC1)C(=O)Nc1sc2c(c1C(=O)OCC)CCN(C(C)=O)C2` are 5.89 and 34.8%.

`CCOC(=O)c1c(NC(=O)C(C)C)sc2c1CCOC2` had a pIC50 in the experiment listed under Rattus norvegicus [1] of 5.00. The same molecule came in with an inhibition in vivo at 50 mg/kg with Rattus norvegicus [2] of 17.6%. The molecule `CCOC(=O)c1c(NC(=O)N2CCN(C)CC2)sc2c1CCN(C(C)=O)C2` showed a pIC50 in the experiment filed under Rattus norvegicus [1] of 4.77. Further, at 50 mg/kg the inhibition in vivo in the experiment with Rattus norvegicus [2] was 40.7%. In the case of `CC(=O)N1CCc2c(sc(NC(=O)C(C)C)c2C(N)=O)C1`, the pIC50 in the experiment listed under Rattus norvegicus [1] was below 4.00. `CCOC(=O)c1c(NC(=O)CC(C)C)sc2c1CCN(C(C)=O)C2`: in the experiment listed under Rattus norvegicus [1], the negative-log IC50 (pIC50) was 4.70. The molecule also came in with an inhibition in vivo at 50 mg/kg with Rattus norvegicus [2] of 33.1%. Consider `CC(=O)N1CCc2c(sc(NC(=O)C(C)C)c2C(=O)O)C1`, for which the pIC50 in the experiment listed under Rattus norvegicus [1] is below 4.00. With `CC(=O)N1CCc2c(sc(NC(=O)C(C)C)c2C#N)C1`, the pIC50 in the experiment listed under Rattus norvegicus [1] is 4.66. Besides, in the experiment with Rattus norvegicus [2], the inhibition in vivo at 50 mg/kg amounted to 23.2%. For `CC(=O)N1CCc2c(sc(NC(=O)C(C)C)c2C(=O)OC(C)C)C1`, the pIC50 in the experiment filed under Rattus norvegicus [1] is 5.15. The same molecule gave an inhibition in vivo at 50 mg/kg in the experiment with Rattus norvegicus [2] of 42.1%.

Regarding `CCOC(=O)c1c(NC(=O)N2CCN(C=O)CC2)sc2c1CCN(C(C)=O)C2`, the pIC50 in the experiment listed under Rattus norvegicus [1] was 4.66. The same molecule yielded an inhibition in vivo at 50 mg/kg in the experiment with Rattus norvegicus [2] of 41.9%.

As to `CCOC(=O)c1c(NC(=O)C(C)(C)C)sc2c1CCN(C(C)=O)C2`, the pIC50 in the experiment listed under Rattus norvegicus [1] was 4.96. For the same molecule, 50 mg/kg produced 63.7% inhibition in vivo in the experiment on Rattus norvegicus [2]. The corresponding values for `CCOC(=O)c1c(NC(=O)CC)sc2c1CCN(C(C)=O)C2` are 5.10 and 90.1%. The corresponding values for `CCOC(=O)c1c(NC(=O)N(CC)C2CCCCC2)sc2c1CCN(C(C)=O)C2` are 4.92 and 7.6%. In the experiment filed under Rattus norvegicus [1], `CCOC(=O)c1c(NC(=O)N2CCSCC2)sc2c1CCN(C(C)=O)C2` gave a pIC50 of 4.92. In the experiment with Rattus norvegicus [2], the inhibition in vivo at 50 mg/kg is 20%. The corresponding values for `CCNC(=O)Nc1sc2c(c1C(=O)OCC)CCN(C(C)=O)C2` are 4.72 and 17%.

Broadly, the pIC50 is −log10 of the IC50, conventionally taken in molar units. Read a low pIC50 as a large IC50. What is called inhibition in vivo is the relative decrease from the control value, in per cent.
